Reference: US20260365627A1, “NOVEL ECTONUCLEOTIDE PYROPHOSPHATASE / PHOSPHODIESTERASE 1 (ENPP-1) INHIBITORS AND USES THEREOF” (SRAVATHI AI TECHNOLOGY PRIVATE LIMITED, priority 2022, published 2026)

Molecular target: T1, Human ENPP-1 (Homo sapiens, UniProt P22413)
T1 sequence (P22413 1-925): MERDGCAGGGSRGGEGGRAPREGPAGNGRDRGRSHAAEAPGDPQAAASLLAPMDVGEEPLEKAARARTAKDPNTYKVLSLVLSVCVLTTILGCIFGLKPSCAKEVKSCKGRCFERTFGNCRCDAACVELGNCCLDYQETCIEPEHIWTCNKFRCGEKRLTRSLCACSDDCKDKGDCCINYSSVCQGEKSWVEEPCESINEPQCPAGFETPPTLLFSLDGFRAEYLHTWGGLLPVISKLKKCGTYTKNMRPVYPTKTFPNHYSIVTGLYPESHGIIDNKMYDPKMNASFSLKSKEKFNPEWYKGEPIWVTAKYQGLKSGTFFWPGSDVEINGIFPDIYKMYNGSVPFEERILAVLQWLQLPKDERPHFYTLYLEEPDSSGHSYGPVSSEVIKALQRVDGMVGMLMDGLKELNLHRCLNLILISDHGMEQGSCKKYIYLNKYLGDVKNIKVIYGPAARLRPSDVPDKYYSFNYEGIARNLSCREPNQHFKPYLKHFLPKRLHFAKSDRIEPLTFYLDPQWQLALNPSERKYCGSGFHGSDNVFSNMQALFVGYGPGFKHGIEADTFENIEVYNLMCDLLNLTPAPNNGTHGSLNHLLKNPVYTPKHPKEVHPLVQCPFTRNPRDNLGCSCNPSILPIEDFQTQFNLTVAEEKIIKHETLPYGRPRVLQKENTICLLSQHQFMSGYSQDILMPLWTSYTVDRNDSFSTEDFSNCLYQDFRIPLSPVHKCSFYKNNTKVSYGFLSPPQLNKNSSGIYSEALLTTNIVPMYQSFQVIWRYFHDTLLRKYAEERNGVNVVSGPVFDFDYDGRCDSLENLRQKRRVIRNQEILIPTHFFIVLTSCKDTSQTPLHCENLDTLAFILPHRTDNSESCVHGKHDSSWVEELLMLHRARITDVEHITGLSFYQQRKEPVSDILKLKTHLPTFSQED
Assay: ENPP-1 Inhibition Assay (cGAMP substrate, AMP Glo luminescence)
Format: biochemical
Conditions: Human ENPP-1 3 nM, 5 μM cGAMP, pH 7.4, 40 μM HSA, RT 3 hrs; read-out: IC50 values of compounds of the invention, 0.1-1 uM
Description: Assay method: Human ENPP-1 at 3 nM prepared in pH 7.4 was incubated with 5 μM cGAMP substrate with the test samples prepared in buffer with pH 7.4 along with 40 μM HSA. The reaction was incubated at RT for 3 hrs. Post incubation, the reaction was stopped by heating the contents at 95 °C for 10 mins. 10 μl of the solution was added to 384-well plate to which 10 μl of AMP Glo reagent-1 was added and incubated for 60 mins at 25 °C. After the incubation, 20 μl of AMP detection solution was added to each well with the enzyme reaction and incubated for 60 mins at 25 °C. The luminescence signal (RLU) was recorded using SpectraMax I3X plate reader.
The luminescence signal is measured as a function of concentration of the inhibitor. If the inhibitor molecule is active, as the concentration of the inhibitor increases, the luminescence value (referred to as OD) decreases. % Inhibition is then calculated as
% Inhibition=((OD of Control−OD of sample)/OD of Control)×100
In this disclosure, the IC50 value of an inhibitor molecule is measured as the concentration of inhibitor which inhibits growth of 50% of the human ENPP-1. A graph of inhibitor concentration on X-axis vs. percentage inhibition on Y-axis is drawn and the […] is measured as the IC50 value.

IC50, 0.1 to 1 µM:
COc1cc2ncnc(N=S(C)(=O)c3ccc(NC(N)=S)cc3)c2cc1OC (stereo not drawn) [SAPTI012S007]
COc1cc2ncnc(N=S(C)(=O)c3cccc(NS(N)(=O)=O)c3)c2cc1OC (stereo not drawn) [SAPTI012S010]
COc1cc2ncnc(N=S(C)(=O)c3cccc(N(C)C(N)=O)c3)c2cc1OC (stereo not drawn) [SAPTI012S012]
COc1cc2ncnc(N=S(C)(=O)c3ccc(C(=O)O)cc3)c2cc1OC (stereo not drawn) [SAPTI012S014]
COc1cc2ncnc(N=S(C)(=O)c3cccc(C(N)=O)c3)c2cc1OC (stereo not drawn) [SAPTI012S022]
COc1cc2ncnc(N=S(C)(=O)c3ccc(CCP(=O)(O)O)cc3)c2cc1OC (stereo not drawn) [SAPTI012S025]
COc1cc2ncnc(N=S(=O)(c3cccc(NC(N)=O)c3)C3CC3)c2cc1OC (stereo not drawn) [SAPTI012S032]
COc1cc2ncnc(N=S(=O)(c3ccccc3)c3ccc(NC(N)=O)cc3)c2cc1OC (stereo not drawn) [SAPTI012S034]
COc1cccc2c(N=S(C)(=O)c3ccc(B(O)O)cc3)ncnc12 (stereo not drawn) [SAPTI012S035]

Same assay, conditions: Human ENPP-1 3 nM, 5 μM cGAMP, pH 7.4, 40 μM HSA, RT 3 hrs; read-out: IC50 values of compounds of the invention, 1-10 uM

IC50, 1 to 10 µM:
COc1cc2ncnc(N=S(C)(=O)c3ccc(P(=O)(O)O)cc3)c2cc1OC (stereo not drawn) [SAPTI012S001]
COc1cc2ncnc(N=S(C)(=O)c3cccc(P(=O)(O)O)c3)c2cc1OC (stereo not drawn) [SAPTI012S002]
COc1cccc2c(N=S(C)(=O)c3cccc(N(C)C(N)=O)c3)ncnc12 (stereo not drawn) [SAPTI012S013]
COc1cc2nccc(N=S(C)(=O)c3ccc(C(N)=O)cc3)c2cc1OC (stereo not drawn) [SAPTI012S018]
Cn1ccc2c(N=S(C)(=O)c3ccc(C(N)=O)cc3)ncnc21 (stereo not drawn) [SAPTI012S019]
COc1cccc2c(N=S(C)(=O)c3ccc(C(N)=O)cc3)ccnc12 (stereo not drawn) [SAPTI012S020]
COc1cccc2ncnc(N=S(C)(=O)c3ccc(B(O)O)cc3)c12 (stereo not drawn) [SAPTI012S039]
COc1cc2ncnc(N=S(C)(=O)c3ccc(F)c(B(O)O)c3)c2cc1OC (stereo not drawn) [SAPTI012S043]

Same assay, conditions: Human ENPP-1 3 nM, 5 μM cGAMP, pH 7.4, 40 μM HSA, RT 3 hrs; read-out: IC50 values of compounds of the invention, <100 nM

IC50, < 0.1 µM:
COc1cc2ncnc(N=S(C)(=O)c3ccc(B(O)O)cc3)c2cc1OC (racemic) [SAPTI012S006]
COc1cc2ncnc(N=S(C)(=O)c3cccc(B(O)O)c3)c2cc1OC (stereo not drawn) [SAPTI012S005]
COc1cc2ncnc(N=S(C)(=O)c3ccc(S(C)(=N)=O)cc3)c2cc1OC (stereo not drawn) [SAPTI012S008]
COc1cc2ncnc(N=S(C)(=O)c3ccc(NC(=O)Nc4ccccc4)cc3)c2cc1OC (stereo not drawn) [SAPTI012S009]
COc1cc2ncnc(N=S(C)(=O)c3cccc(NC(N)=O)c3)c2cc1OC (stereo not drawn) [SAPTI012S011]
COc1cc2ncnc(N=S(C)(=O)c3ccc(CNC(N)=O)cc3)c2cc1OC (stereo not drawn) [SAPTI012S015]
COc1cc2ncnc(N=S(C)(=O)c3ccc(C(N)=O)cc3)c2cc1OC (stereo not drawn) [SAPTI012S016]
COc1cc2ncnc(N=S(C)(=O)c3cccc(C(=O)O)c3)c2cc1OC (stereo not drawn) [SAPTI012S021]
COc1cc2ncnc(N=S(C)(=O)c3cccc(CNC(N)=O)c3)c2cc1OC (stereo not drawn) [SAPTI012S024]
COc1cc2ncnc(N=S(C)(=O)c3cccc4c(P(=O)(O)O)cccc34)c2cc1OC (stereo not drawn) [SAPTI012S028]
COc1cc2ncnc(N=S(C)(=O)c3cccc4c(NC(N)=O)cccc34)c2cc1OC (stereo not drawn) [SAPTI012S029]
COc1cc2ncnc(N=S(=O)(c3cccc(NC(N)=O)c3)C3CCCC3)c2cc1OC (stereo not drawn) [SAPTI012S030]
COc1cc2ncnc(N=S(=O)(c3ccc(P(=O)(O)O)cc3)C(C)C)c2cc1OC (stereo not drawn) [SAPTI012S031]
COc1cc2nccc(N=S(C)(=O)c3ccc(B(O)O)cc3)c2cc1OC (stereo not drawn) [SAPTI012S036]
COc1nccc2c(N=S(C)(=O)c3ccc(B(O)O)cc3)ncnc12 (stereo not drawn) [SAPTI012S040]
COc1cc2ncnc(N=S(C)(=O)c3ccc(CC(N)=O)cc3)c2cc1OC (stereo not drawn) [SAPTI012S042]

Same assay, conditions: Human ENPP-1 3 nM, 5 μM cGAMP, pH 7.4, 40 μM HSA, RT 3 hrs; read-out: IC50 values of compounds of the invention, >10 uM

IC50, > 10 µM:
COc1cc2ncnc(N=S(C)(=O)c3ccc(NS(N)(=O)=O)cc3)c2cc1OC (stereo not drawn) [SAPTI012S003, N-{4-[N-(6,7-dimethoxyquinazoline-4-)-S-methanesulfonimidoyl]phenyl}sulfuric diamide]
COc1cccc2c(N=S(C)(=O)c3ccc(C(N)=O)cc3)ncnc12 (stereo not drawn) [SAPTI012S017]
COc1cc2ncnc(N=S(C)(=O)c3cccc(CN)c3)c2cc1OC (stereo not drawn) [SAPTI012S023]
COc1cc2ncnc(N=S3(=O)CCC(C)(C)c4cc(P(=O)(O)O)ccc43)c2cc1OC (stereo not drawn) [SAPTI012S026]
COc1cc2ncnc(N=S(=O)(CCCP(=O)(O)O)c3ccccc3)c2cc1OC (stereo not drawn) [SAPTI012S027]
COc1cc2ncnc(N=S(=O)(c3cccc(NC(N)=O)c3)C(C)C)c2cc1OC (stereo not drawn) [SAPTI012S033]
Cn1ccc2c(N=S(C)(=O)c3ccc(B(O)O)cc3)ncnc21 (stereo not drawn) [SAPTI012S037]
CS(=O)(=Nc1ncnc2ccc(F)cc12)c1ccc(B(O)O)cc1 (stereo not drawn) [SAPTI012S038]
CS(=O)(=Nc1ncnc2ccccc12)c1ccc(B(O)O)cc1 (stereo not drawn) [SAPTI012S041]

Same assay, conditions: racemate and enantiomers separated by chiral HPLC; Human ENPP-1 3 nM, 5 μM cGAMP, pH 7.4, 40 μM HSA; read-out: IC50 value range (enantiomers of SAPTI012S006)

IC50, < 0.1 µM:
COc1cc2ncnc(N=S(C)(=O)c3ccc(B(O)O)cc3)c2cc1OC (racemic) [SAPTI012S006]
COc1cc2ncnc(N=S(C)(=O)c3ccc(B(O)O)cc3)c2cc1OC (single isomer, unassigned) [SAPTI012S006-E2]

IC50, > 0.1 µM:
COc1cc2ncnc(N=S(C)(=O)c3ccc(B(O)O)cc3)c2cc1OC (single isomer, unassigned) [SAPTI012S006-E1]
